Results taken from PubChem BioAssay AID1963838 (Molecular Pharmacology Branch, DTP, NCI, 2024).

Tested on: 855422-203-R-J1-PDC complex spheroid viability
Experiment: Anticancer human tumor 855422-203-R-J1-PDC patient-derived bladder carcinoma cell line growth inhibition [POLQ]
Settings: for IC50: curve of first compound; for viability, T/C: stronger effect = lower value
Experimental: Multicellular complex tumor spheroid response to Polymerase (POL) inhibitors (novobiocin, ART-558, RP6685) in combination with a variety of drugs and investigational agents in selected tumor cell lines
The POL inhibitors (novobiocin, ART-558, and RP6685) were evaluated both individually and in combination with standard of care and investigational anticancer small molecules within a complex spheroid model of solid tumors. . Complex spheroids include a stromal component modeled by human endothelial cells (HUVEC) and fibroblasts modeled by human mesenchymal stem cells (MSCs). The concentration ranges selected for each drug and investigational agent were based upon clinically achievable concentrations if the clinical Cmax of the agent was known.
Compounds. The drugs and investigational agents: novobiocin (NSC847541), ART-558 (NSC835418), RP-6685 (NSC848927), peposertib (NSC802822), ceralasertib (NSC780249), elimusertib (NSC800525), camonsertib (NSC841442), AZD-1390 (NSC803789), olaparib (NSC753686), talazoparib (NSC767125), rucaparib (NSC756644), sotorasib (NSC818433), MRTX-1133 (NSC836407), SN-38 (NSC673596), topotecan (NSC609699), epotoside (NSC141540), doxorubicin (NSC123127), gemcitabine (NSC613327), 5-fluorouracil (NSC19893), paclitaxel (NSC125973), vemurafenib (NSC761431), MSA-2 (NSC828583), SN-011 (NSC837082), adavosertib (NSC754352), prexasertib (NSC758257), carboplatin (NSC241240) and oxaliplatin (NSC266046), were obtained from the National Cancer Institute (NCI) Developmental Therapeutics Program Chemical Repository (21). The FDA-approved anticancer drug set is available from the Developmental Therapeutics Program at https://dtp.cancer.gov/organization/dscb/obtaining/. […] The stock solutions were prepared in dimethyl sulfoxide (DMSO, Sigma-Aldrich, St. Louis, MO, cat. D2650), except for the platinum compounds which were prepared in saline (Quality Biological, Gaithersburg, MD, cat. 114-055-101), at 800-fold the tested concentration and stored at -70 degrees C prior to their use. All drugs and investigational agents were tested over a range starting from a high concentration at or near the clinical Cmax and decreasing in half-log increments. If the clinical Cmax for an agent had not been determined, the highest concentration tested was 10 microM, except for SN-38, which was tested at a high concentration of 1 microM.
Cell Culture. All cells were maintained in an incubator at 37 degrees C and 5% CO2 with 95% humidity. The PDC lines were cultured according to standard operating procedures established by the NCI PDMR (https://pdmr.cancer.gov). Table 3 of the manuscript, lists the cell lines along with the number of the three cell types plated to form the mct-spheroids and media for tumor cell growth. After thawing, all PDC lines, except 997537-175-T-J1-PDC and 415267-285-R-J2-PDC, were cultured in Matrigel-coated flasks prepared with a working solution of 1X Ham's F-12 nutrient mix, without supplementation (Thermo Fisher Scientific, cat. 11765054), 100 U/mL penicillin-streptomycin (Thermo Fisher Scientific, cat. 15140122), and 2.5% Matrigel (Corning Inc., Corning, NY, cat. 354248) for the first three passages. The two PDC lines 997537-175-T-J1-PDC and 415267-285-R-J2-PDC were cultured on uncoated flasks. The 857933-349-R-J2-PDC line was cultured in 6C/Colon 1B media containing advanced DMEM/F-12 (Thermo Fisher Scientific, cat. 12634028), 10 mM HEPES (Thermo Fisher Scientific, cat. 15630080), 1X GlutaMAX supplement (Thermo Fisher Scientific, cat. 35050061), 0.1 mg/mL primocin (InvivoGen, San Diego, CA, cat. ant-pm-2), 10% defined fetal bovine serum, heat inactivated (HyClone Laboratories Inc., Logan, UT, cat. SH30070.03HI), 50% L-WRN conditioned media (ATCC, cat. CRL-3276), 1.25 mM N-Acetyl-L-cysteine (Sigma-Aldrich, cat. A9165), 10 mM nicotinamide (Sigma-Aldrich, cat. N0636), 1X B-27 supplement (Thermo Fisher Scientific, cat. 17504044), 1X N-2 supplement (Thermo Fisher Scientific, cat. […]

[1] = second compound 0.0316 µM, first compound 0.0316 µM
[2] = second compound 0.0316 µM, first compound 0.1 µM
[3] = second compound 0.0316 µM, first compound 0.316 µM
[4] = second compound 0.0316 µM, first compound 1 µM
[5] = second compound 0.1 µM, first compound 0.0316 µM
[6] = second compound 0.1 µM, first compound 0.1 µM
[7] = second compound 0.1 µM, first compound 0.316 µM
[8] = second compound 0.1 µM, first compound 1 µM
[9] = second compound 0.316 µM, first compound 0.0316 µM
[10] = second compound 0.316 µM, first compound 0.1 µM
[11] = second compound 0.316 µM, first compound 0.316 µM
[12] = second compound 0.316 µM, first compound 1 µM
[13] = second compound 1 µM, first compound 0.0316 µM
[14] = second compound 1 µM, first compound 0.1 µM
[15] = second compound 1 µM, first compound 0.316 µM
[16] = second compound 1 µM, first compound 1 µM
[17] = second compound 3.16 µM, first compound 0.0316 µM
[18] = second compound 3.16 µM, first compound 0.1 µM
[19] = second compound 3.16 µM, first compound 0.316 µM
[20] = second compound 3.16 µM, first compound 1 µM
[21] = second compound 10 µM, first compound 0.0316 µM
[22] = second compound 10 µM, first compound 0.1 µM
[23] = second compound 10 µM, first compound 0.316 µM
[24] = second compound 10 µM, first compound 1 µM
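Further: spheroids exposed to compounds for seven days before readout.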

Compound CC1COCCN1c1cc(-c2ccnn2C)c2ccnc(-c3ccn[nH]3)c2n1 (centres undefined) + COC1C(OC(N)=O)C(O)C(Oc2ccc3c(O)c(NC(=O)c4ccc(O)c(CC=C(C)C)c4)c(=O)oc3c2C)OC1(C)C has an IC50 (second compound 0.0316 µM) of 169 nM, an IC50 (second compound 0.1 µM) of 171 nM and an IC50 (second compound 0.316 µM) of 176 nM. The IC50 (second compound 1 µM) was 193 nM, the IC50 (second compound 3.16 µM) was 192 nM and the IC50 (second compound 10 µM) was 183 nM. The viability, T/C [1] was 107%, the viability, T/C [2] was 71.5% and the viability, T/C [3] was 24.6%. The viability, T/C [4] was 9.79%, the viability, T/C (second compound 0.0316 µM, first compound 3.16 µM) was 8.71% and the viability, T/C (second compound 0.0316 µM, first compound 10 µM) was 8.63%. The viability, T/C [5] was 108%, the viability, T/C [6] was 73% and the viability, T/C [7] was 23.4%. It also gave a viability, T/C [8] of 11.9%, a viability, T/C (second compound 0.1 µM, first compound 3.16 µM) of 9.78% and a viability, T/C (second compound 0.1 µM, first compound 10 µM) of 9.2%. It also gave a viability, T/C [9] of 104%, a viability, T/C [10] of 74.5% and a viability, T/C [11] of 24.1%. The viability, T/C [12] was 13.5%, the viability, T/C (second compound 0.316 µM, first compound 3.16 µM) was 11.3% and the viability, T/C (second compound 0.316 µM, first compound 10 µM) was 6.39%. The viability, T/C [13] was 104%, the viability, T/C [14] was 85.4% and the viability, T/C [15] was 23.1%. For the same compound, the viability, T/C [16] was 13.3%, the viability, T/C (second compound 1 µM, first compound 3.16 µM) was 8.72% and the viability, T/C (second compound 1 µM, first compound 10 µM) was 7.58%. It also gave a viability, T/C [17] of 111%, a viability, T/C [18] of 85% and a viability, T/C [19] of 22.9%. It also gave a viability, T/C [20] of 11%, a viability, T/C (second compound 3.16 µM, first compound 3.16 µM) of 6.98% and a viability, T/C (second compound 3.16 µM, first compound 10 µM) of 7.28%. For the same compound, the viability, T/C [21] was 118%, the viability, T/C [22] was 81.5% and the viability, T/C [23] was 21.1%. The viability, T/C [24] was 10.7%, the viability, T/C (second compound 10 µM, first compound 3.16 µM) was 9.81% and the viability, T/C (second compound 10 µM, first compound 10 µM) was 7.1%.

COc1cccc(OCCCN)c1-c1cc(Nc2cnc(C#N)cn2)n[nH]1 + COC1C(OC(N)=O)C(O)C(Oc2ccc3c(O)c(NC(=O)c4ccc(O)c(CC=C(C)C)c4)c(=O)oc3c2C)OC1(C)C gave an IC50 (second compound 0.0316 µM) of 19.4 nM, an IC50 (second compound 0.1 µM) of 16 nM and an IC50 (second compound 0.316 µM) of 20 nM. It also gave an IC50 (second compound 1 µM) of 16 nM, an IC50 (second compound 3.16 µM) of 16.1 nM and an IC50 (second compound 10 µM) of 16 nM. For the same compound, the viability, T/C (second compound 0.0316 µM, first compound 0.00316 µM) was 98.3%, the viability, T/C (second compound 0.0316 µM, first compound 0.01 µM) was 90% and the viability, T/C [1] was 20.3%. It also gave a viability, T/C [2] of 8.97%, a viability, T/C [3] of 6.7% and a viability, T/C [4] of 6.14%. The viability, T/C (second compound 0.1 µM, first compound 0.00316 µM) was 102%, the viability, T/C (second compound 0.1 µM, first compound 0.01 µM) was 69% and the viability, T/C [5] was 22.4%. It also gave a viability, T/C [6] of 8.69%, a viability, T/C [7] of 5.66% and a viability, T/C [8] of 4.71%. For the same compound, the viability, T/C (second compound 0.316 µM, first compound 0.00316 µM) was 109%, the viability, T/C (second compound 0.316 µM, first compound 0.01 µM) was 101% and the viability, T/C [9] was 16.4%. It also gave a viability, T/C [10] of 7.64%, a viability, T/C [11] of 6.06% and a viability, T/C [12] of 5.18%. It also gave a viability, T/C (second compound 1 µM, first compound 0.00316 µM) of 118%, a viability, T/C (second compound 1 µM, first compound 0.01 µM) of 75.1% and a viability, T/C [13] of 13.6%. For the same compound, the viability, T/C [14] was 6.95%, the viability, T/C [15] was 5.24% and the viability, T/C [16] was 5.12%. For the same compound, the viability, T/C (second compound 3.16 µM, first compound 0.00316 µM) was 109%, the viability, T/C (second compound 3.16 µM, first compound 0.01 µM) was 74.9% and the viability, T/C [17] was 14.5%. For the same compound, the viability, T/C [18] was 7.77%, the viability, T/C [19] was 5.93% and the viability, T/C [20] was 8.32%. It also gave a viability, T/C (second compound 10 µM, first compound 0.00316 µM) of 107%, a viability, T/C (second compound 10 µM, first compound 0.01 µM) of 74.2% and a viability, T/C [21] of 15%. The viability, T/C [22] was 8.46%, the viability, T/C [23] was 7.19% and the viability, T/C [24] was 4.54%.
